The values that follow come from patent US12624068B2, “Exon skipping by peptide nucleic acid derivatives” (OliPass Corporation, priority 2016, dated 2026).

The series has as its system mdx mice. As to the kind of experiment: Rotarod test in mdx mice. The settings on record: 100 pmole/Kg subcutaneous 3× per week. Type of series: in vivo, mouse. The procedure: Given with the exon skipping potential, “DMD-ASO 1” was evaluated in mdx mice for its ability to improve muscle function by rotarod test as described below.
[Grouping] 6 weeks old male mdx mice were trained for rotarod test over a period of 2 weeks, and then randomly assigned into 3 groups of 0 (negative control), 100 and 1,000 pmole/Kg “DMD-ASO 1” based on individual scores by rotarod test in Day 0, i.e., the day of grouping. (N=10 per group)
[ASO Treatment] The injection solutions were prepared by serially diluting the ASO to 20 nM and 200 nM in PBS. Animals were subcutaneously administered with vehicle (PBS, negative control), 20 nM “DMD-ASO 1” (100 pmole/Kg), or 200 nM “DMD-ASO 1” (1,000 pmole/Kg) at 5 mL/Kg, 3× per week over a period of Day 0 to Day 21.
[Rotarod Test and Statistical Analysis] Mice were subjected to rotarod test on a rotarod apparatus (Model #47650, Ugo Basile) with an acceleration schedule of 4 rpm to 45 rpm over 60 seconds. The latency to fall (i.e., the duration that animal remained on the rotarod) was scored for each individual animal. Statistical significance was evaluated by student's t-test against the negative control group.

“Fethoc-A(5)GA-G(6)CC(1O2)-TCA-A(5)AA(5)-T-NH2 (antisense AGAGCCTCAAAAT; Fethoc N-cap, C-terminal amide, chemistry not fully specified) [DMD-ASO 1]”: the “muscle function by rotarod test” value is “showed a strong propensity of improvement, but was not significant”.
